Assay [1] has as its system linezolid-resistant S. pneumoniae. Particulars: Adis R&D Insight report Document 013296; cited from earlier work.
The subject of assay [2] is Enterococcus faecalis 416 strain. Nature of the assay: Propensity to resistance development (resistant colonies per plate). The following applies: E. faecalis 416 at 10^8 CFU, compound concentration 5 mcg/ml, 48 hours at 35° C. In kind it is cell-based. The protocol: Enterococcus faecalis 416 strain at 10^8 CFU density level was spirally plated on Mueller Hinton agar containing 5 mcg/ml each of linezolid and representative compound of the invention. Plates were incubated at 35° C. for 48 hours and number of resistant colonies developed in presence of respective compounds were counted by automated counter.

Assay [3] shares this test system. Nature of the assay: Killing effect study (bactericidal vs bacteriostatic activity). The following applies: E. faecalis 416, 5 mcg/ml compound, initial count 10^6 CFU/ml, Table 4. In kind it is cell-based. The protocol:
The initial inoculum was adjusted to 10^6 CFU (colony forming units) per ml. The flasks were kept on shaker in close cabinet at 35° C. Aliquots were drawn at 112 hours and cell count was determined to assess the extent of loss in viability.

The subject of another assay is E. faecium 367 LNZR. Nature of the assay: MIC determination, linezolid resistant E. faecium 367 LNZR. The class given is cell-based. The following applies: Enterococcus faecium, read-out: MIC E. faecium 367 LNZR. On the procedure: E. faecium ATCC 19434 strain at a cell density of 10^6/ml was inoculated in Mueller Hinton broth medium containing Linezolid at a concentration of 5 and 7.5 mcg/ml. The stationary culture was incubated at 37° C. and inspected at every 24 hours to assess the formation of turbidity due to the onset of bacterial growth. […] A 50 microliter sample of turbid flask was plated on Mueller Hinton agar medium incorporated with linezolid at 7.5 mcg/ml. The agar plates were incubated for 48 hours at 37° C. for the formation of discrete colonies of linezolid-resistant strain of E. faecium (E. faecium 367 LNZR). MICs of resistant mutant E. faecium 367 LNZR and parent strain E. faecium ATCC 19434 were determined for linezolid by NCCLS method.
(§1) Cultures were further diluted 1:10 in Mueller Hinton broth. Using Denley's mutipoint inoculator, 10^4 cells were deposited on Mueller Hinton agar (Difco) containing range of 2 fold dilutions of test compounds. […] MIC is defined as minimum drug concentration that inhibits test organisms. For determining MIC of test compounds against Streptococcus pneumoniae, Mueller Hinton agar containing 5% sheep blood was employed.

For a further assay, the system named is SPN 744 LNZR. Nature of the assay: MIC determination, linezolid resistant SPN 744 LNZR. The class given is cell-based. The following applies: Streptococcus pneumoniae, read-out: MIC SPN744 LNZR. On the procedure:
(§2) Infecting doses of organisms given by intraperitoneal route in 5% hog gastric mucin were 10^3-10^4 CFU (colony forming units)/animal for SPN 6303 and 10^8 CFU/animal for MRSA-32. In case of MRSA-32, Linezolid was administered by oral route, 1 and 4 h post infection, BID (twice a day) for 1 day and for SPN 6303 BID for 2 days. […] MICs of Methicillin Resistant Staphylococcus aureus-32 Linezolid resistant (MRSA-32 LNZR), S. pneumoniae 744 Linezolid resistant (SPN 744 LNZR) and parent Linezolid sensitive strains MRSA-32 and SPN 6303 were determined for Linezolid by NCCLS agar dilution method.
as §1

In another assay the test system is MRSA 032. Kind of assay: MIC determination, linezolid sensitive MRSA 032 (MRSA-32). In kind it is cell-based. The following applies: Staphylococcus aureus, read-out: MIC MRSA 32. On the procedure: as §2, §1
The next assay has as its system S. aureus MRSA-32 LNZR. Kind of assay: MIC determination, linezolid resistant S. aureus MRSA-32 LNZR. The class given is cell-based. The following applies: Staphylococcus aureus, 24 h, read-out: MIC MRSA 32 LNZR. The protocol: as §2, §1
The subject of another assay is SPN 49619. Kind of assay: MIC determination, linezolid sensitive SPN 49619. The class given is cell-based. The following applies: Streptococcus pneumoniae; linezolid sensitive strain, Table 3.
The test system of assay [4] is Enterococcus faecalis 416. Nature of the assay: Mutant Prevention Concentration (MPC) determination. Particulars: E. faecalis 416, 10^9 CFU/plate, TSA, 48 hours at 35° C. On the set-up: unit not given here. The class given is cell-based. On the procedure: Clinical isolate Enterococcus faecalis 416 was spirally plated on Tryptic Soya agar (TSA) plate containing various 2 fold dilutions each of a representative compound of the invention and Linezolid so as to give 10^9 CFU/plate. After incubation at 35° C. for 48 hours, the CFU on each plate was determined. MPC is defined as minimum concentration of drug that prevents mutant colonies on respective antibiotic containing plate.

In brackets after ≈: the same amount, converted by molar mass.

`O=C([C@@H](O)CO)N1CC=C(c2c(F)cc(N3C[C@H](COc4ccon4)OC3=O)cc2F)CC1` [AZD 2563]: the “activity against linezolid-resistant S. pneumoniae” value in assay [1] is recorded as “ineffective”.
In general, MIC refers to the lowest concentration that inhibits growth of the organism. The molecule `CC(=O)NC[C@H]1CN(c2ccc(N3CCC(=CC#N)CC3)cc2)C(=O)O1` [Example 3, (S)-N-{3-[4-(4-cyanomethylidene-piperidin-1-yl)-phenyl]-2-oxo-oxazolidin-5-ylmethyl}-acetamide] had a No. of colonies/plate in assay [2] of 0. Moreover, the “Final Count (112 h)” value in [3] is on record as 10^6 CFU/ml. Moreover, the MIC came out at 25 µg/mL (≈ 70.5 µM) in the assay on E. faecium 367 LNZR; 12.5 µg/mL (≈ 35.3 µM) in the assay on SPN 744 LNZR; 1.56 µg/mL (≈ 4.4 µM) in the assay on MRSA 032; 25 µg/mL (≈ 70.5 µM) in the assay with S. aureus MRSA-32 LNZR; 0.8 µg/mL (≈ 2.26 µM) against SPN 49619. Also, the MPC in assay [4] is given as 12.5.
`CC(=O)NC[C@H]1CN(c2ccc(N3CCC(=CC#N)CC3)c(F)c2)C(=O)O1` [Example 9, (S)-N-{3-[4-(4-cyanomethylidene-piperidin-1-yl)-3-fluorophenyl]-2-oxo-oxazolidin-5-ylmethyl}-acetamide] came in with a No. of colonies/plate in assay [2] of 0. The “Final Count (112 h)” value in [3] is recorded as 10^3 CFU/ml. Also, in assay [4], the MPC was 6.25.
As to `N#CC=C1CCN(c2ccc(N3C[C@H](CNC(=O)CCl)OC3=O)cc2F)CC1` [Example 31, (S)-N-{3-[4-(4-cyanomethylidene-piperidin-1-yl)-3-fluorophenyl]-2-oxo-oxazolidin-5-ylmethyl}-chloroacetamide], the No. of colonies/plate in [2] is on record as 0. The minimum inhibitory concentration (MIC) in the assay with E. faecium 367 LNZR was determined as 6.25 µg/mL (≈ 15.4 µM); in the assay with SPN 744 LNZR, 12.5 µg/mL (≈ 30.7 µM); with MRSA 032, 0.8 µg/mL (≈ 1.97 µM); in the assay on S. aureus MRSA-32 LNZR, 12.5 µg/mL (≈ 30.7 µM); with SPN 49619, 0.8 µg/mL (≈ 1.97 µM).
As for `N#CC=C1CCN(c2ccc(N3C[C@H](CNC(=O)C(Cl)Cl)OC3=O)cc2F)CC1` [Example 32, (S)-N-{3-[4-(4-cyanomethylidene-piperidin-1-yl)-3-fluorophenyl]-2-oxo-oxazolidin-5-ylmethyl}-dichloroacetamide], the No. of colonies/plate in [2] stood at 0. The minimal inhibitory concentration (MIC) is 6.25 µg/mL (≈ 14.2 µM) in the assay with E. faecium 367 LNZR; 6.25 µg/mL (≈ 14.2 µM) with SPN 744 LNZR; 0.8 µg/mL (≈ 1.81 µM) in the assay on MRSA 032; 12.5 µg/mL (≈ 28.3 µM) in the assay with S. aureus MRSA-32 LNZR; 0.8 µg/mL (≈ 1.81 µM) in the assay with SPN 49619. The molecule further yielded an MPC in assay [4] of 6.25.
In turn, `COC(=S)NC[C@H]1CN(c2ccc(N3CCC(=CC#N)CC3)c(F)c2)C(=O)O1` [Example 46, (S)-N-{3-[4-(4-cyanomethylidene-piperidin-1-yl)-3-fluorophenyl]-2-oxo-oxazolidin-5-ylmethyl}-methylthiocarbamate] showed a No. of colonies/plate in assay [2] of 0. The “Final Count (112 h)” value in assay [3] is recorded as <10^2 CFU/ml. The minimal inhibitory concentration (MIC) with E. faecium 367 LNZR amounted to 1.56 µg/mL (≈ 3.86 µM); in the assay on SPN 744 LNZR, 6.25 µg/mL (≈ 15.5 µM); in the assay with MRSA 032, 0.2 µg/mL (≈ 0.494 µM); with S. aureus MRSA-32 LNZR, 6.25 µg/mL (≈ 15.5 µM); against SPN 49619 it was 0.2 µg/mL (≈ 0.494 µM). The molecule further displayed an MPC in assay [4] of 1.56.
In turn, `N#CC=C1CCN(c2ccc(N3C[C@H](CNC(=S)CO)OC3=O)cc2F)CC1` [Example 47, (S)-N-{3-[4-(4-cyanomethylidene-piperidin-1-yl)-3-fluorophenyl]-2-oxo-oxazolidin-5-ylmethyl}-2-hydroxythioacetamide] showed a No. of colonies/plate in assay [2] of 0. Besides, the results for the MIC in the assay on MRSA 032 and in the assay on SPN 49619 were 0.8 µg/mL (≈ 1.98 µM) and 0.4 µg/mL (≈ 0.989 µM), respectively.
With `N#CC=C1CCN(c2ccc(N3C[C@H](CNC(N)=S)OC3=O)cc2F)CC1` [Example 51, (S)-N-{3-[4-(4-cyanomethylidene-piperidin-1-yl)-3-fluorophenyl]-2-oxo-oxazolidin-5-ylmethyl}-thiocarbamide], in [2], the No. of colonies/plate worked out at 0. For the same molecule, the “Final Count (112 h)” value in assay [3] is <10^2 CFU/ml. Moreover, the minimal inhibitory concentration (MIC) with E. faecium 367 LNZR was determined as 1.56 µg/mL (≈ 4.01 µM); in the assay on SPN 744 LNZR, 3.12 µg/mL (≈ 8.01 µM); in the assay with MRSA 032, 0.4 µg/mL (≈ 1.03 µM); with S. aureus MRSA-32 LNZR it was 3.12 µg/mL (≈ 8.01 µM); against SPN 49619, 0.2 µg/mL (≈ 0.514 µM). The same molecule yielded an MPC in [4] of 1.56.
In assay [2], `CC(=O)NC[C@H]1CN(c2ccc(N3CCC(=C(C)C#N)CC3)c(F)c2)C(=O)O1` [Example 74, (S)-N-{3-[4-(4-(1-cyanoethylidene)-piperidin-1-yl)-3-fluorophenyl]-2-oxo-oxazolidin-5-ylmethyl}-acetamide] registered a No. of colonies/plate of 0. Moreover, the MIC with E. faecium 367 LNZR was 6.25 µg/mL (≈ 16.2 µM); in the assay on SPN 744 LNZR, 6.25 µg/mL (≈ 16.2 µM); with S. aureus MRSA-32 LNZR, 25 µg/mL (≈ 64.7 µM).
`CCC(C#N)=C1CCN(c2ccc(N3C[C@H](CNC(=O)C(Cl)Cl)OC3=O)cc2F)CC1` [Example 90, (S)-N-{3-[4-(4-(1-cyanopropylidene)-piperidin-1-yl)-3-fluorophenyl]-2-oxo-oxazolidin-5-ylmethyl}-dichloroacetamide] registered a No. of colonies/plate in [2] of 0. Besides, the minimal inhibitory concentration (MIC) was determined as 3.12 µg/mL (≈ 6.65 µM) in the assay with E. faecium 367 LNZR; 6.25 µg/mL (≈ 13.3 µM) in the assay on SPN 744 LNZR; 0.8 µg/mL (≈ 1.7 µM) with MRSA 032; 12.5 µg/mL (≈ 26.6 µM) with S. aureus MRSA-32 LNZR; 0.4 µg/mL (≈ 0.852 µM) in the assay with SPN 49619.
Consider `C#CCC(C#N)=C1CCN(c2ccc(N3C[C@H](CNC(C)=O)OC3=O)cc2F)CC1` [Example 96, (S)-N-{3-[4-(4-(1-cyano-3-yne-butylidene)-piperidin-1-yl)-3-fluorophenyl]-2-oxo-oxazolidin-5-ylmethyl}-acetamide], for which the No. of colonies/plate in assay [2] is 0. Besides, the “Final Count (112 h)” value in assay [3] is <10^2 CFU/ml. For the same molecule, the MIC with E. faecium 367 LNZR was determined as 3.12 µg/mL (≈ 7.6 µM); in the assay with SPN 744 LNZR, 6.25 µg/mL (≈ 15.2 µM); in the assay on MRSA 032, 0.8 µg/mL (≈ 1.95 µM); with S. aureus MRSA-32 LNZR, 12.5 µg/mL (≈ 30.5 µM); with SPN 49619 it was 0.8 µg/mL (≈ 1.95 µM). This molecule also showed an MPC in assay [4] of 6.25.
`CC(=S)NC[C@H]1CN(c2ccc(N3CC=C(CC#N)CC3)c(F)c2)C(=O)O1` [Example 160, (S)-N-{3-[4-(4-cyanomethyl-3,4-dehydropiperidin-1-yl)-3-fluorophenyl]-2-oxo-oxazolidin-5-ylmethyl}-thioacetamide] gave a No. of colonies/plate in assay [2] of 0. Besides, the “Final Count (112 h)” value in assay [3] is on record as <10^2 CFU/ml. The MIC was 3.12 µg/mL (≈ 8.03 µM) in the assay with SPN 744 LNZR, 0.4 µg/mL (≈ 1.03 µM) in the assay on MRSA 032, 6.25 µg/mL (≈ 16.1 µM) in the assay with S. aureus MRSA-32 LNZR and 0.2 µg/mL (≈ 0.515 µM) in the assay with SPN 49619.

These data come from patent US7405228B2, “Antibacterial cyano-(substituted)-methylenepiperidinophenyl oxazolidinones targeting multiple ribonucleoprotein sites” (Wockhardt Limited, priority 2002, dated 2008).
